{"source": "patent US20080070991A1", "about": "(priority 2006, published 2008)", "origin": "cited, not measured here", "test_system": "stilbene synthase", "settings": "Barbera cell suspensions treated with 10 μm methyljasmonate", "data": [{"smiles": "CC/C=C\\CC1C(=O)CCC1CC(=O)OC", "note": "(stereo not shown) [methyljasmonate, Methyljasmonate]", "values": [{"measurement": "stilbene synthase expression (gel analysis)", "result": "up-regulation of the stilbene synthase"}]}]}
